Experimental data reported in patent US20130225839A1, “PREPARATION METHOD OF FOSAMPRENAVIR DERIVATIVES AND RELEVANT INTERMEDIATE THEREOF” (ZHEJIANG JIUHOU PHARMA SCIENCE & TECHNOLOGY CO., LTD., priority 2010, published 2013).
In brackets after ≈: the same amount, converted by molar mass.

Columns and labels:
[1] = cited from earlier work
[2] = solubility in water or ethanol; format: physicochemical

Question: Which “solubility in water at 25° C.” value [1] does the source give for `CC(C)CN(C[C@@H](O)[C@H](Cc1ccccc1)NC(=O)O[C@H]1CCOC1)S(=O)(=O)c1ccc(N)cc1` [APV, amprenavir] here?
Answer: The value was 40 µg/mL (≈ 79.1 µM).

Question: With `CC(C)CN(C[C@@H](OP(=O)([O-])[O-])[C@H](Cc1ccccc1)NC(=O)O[C@H]1CCOC1)S(=O)(=O)c1ccc([N+](=O)[O-])cc1.[Na+].[Na+]` [sodium (3S)4etrahydrofuran-3-yl(1S,2R)-3-[(4-nitrophenyl)sulfonyl](isobutyl)amino-1-benzyl-2-(phosphonooxy)propyl-carbamate] as the compound, how does the solubility in ethanol ([2]; ethanol) read?
Answer: Its solubility in ethanol is “soluble”.

Question: And the solubility in water ([2]; water)?
Answer: Its solubility in water is “soluble”.
